Measurements from PMC12396240 (Drug Design, Development and Therapy, 2025).
“Also recorded” adds a separate entry of the source.

How the values were obtained:
[1] = Pharmacokinetics of apixaban in rats, alone and with palbociclib; assay type: in vivo, Sprague-Dawley rats
[2] = Pharmacokinetics of palbociclib in rats, alone and with apixaban or rivaroxaban; assay type: in vivo, Sprague-Dawley rats
[3] = system: P-gp (Abcb1a); assay: qRT-PCR mRNA expression in rat liver and intestine after palbociclib for 8 days; assay type: in vivo; conditions: palbociclib for eight consecutive days vs blank control
[4] = system: BCRP (Abcg2); assay: as above; assay type: in vivo; conditions: palbociclib for eight consecutive days vs blank control
[5] = Pharmacokinetics of rivaroxaban in rats, alone and with palbociclib; assay type: in vivo, Sprague-Dawley rats
[6] = apixaban 0.25 mg/kg alongside palbociclib, rats, no statistical significance
[7] = apixaban 0.5 mg/kg with simultaneous palbociclib vs apixaban-only group, rats
[8] = apixaban 0.5 mg/kg with simultaneous palbociclib vs control group, rats
[9] = palbociclib co-administered with apixaban vs palbociclib alone, rats
[10] = palbociclib co-administered with rivaroxaban vs palbociclib alone, rats
[11] = SD rats, oral, rivaroxaban 2 mg/kg alone, geometric mean (GSD) (geometric CV%)
[12] = male, Sprague-Dawley, rat, plasma, po, 2 mg/kg
[13] = rivaroxaban 1 mg/kg + multiple doses of palbociclib compared with rivaroxaban 2 mg/kg, rats

COc1ccc(-n2nc(C(N)=O)c3c2C(=O)N(c2ccc(N4CCCCC4=O)cc2)CC3)cc1 [Apixaban, apixaban]
CLz ([1]; SD rats, oral, apixaban 0.5 mg/kg alone, geometric mean (GSD) (geometric CV%)): 0.86(GSD 1.49) (110.3%) L/h/kg
differences for CLz/F, Tmax, t1/2, Vz/F, MRT0-t and MRT0-∞ of apixaban ([1]; apixaban 0.25 mg/kg alongside palbociclib, rats): no significant differences
increase in AUC0-t of apixaban [1, 6]: 43.35%
increase in AUC0-∞ of apixaban [1, 6]: 43.49%
increase in Cmax of apixaban [1, 6]: 45.03%
increase in AUC0-t of apixaban [1, 7]: 258.36%
increase in AUC0-∞ of apixaban [1, 7]: 256.64%
increase in Cmax of apixaban [1, 7]: 243.61%
decrease in apparent volume of distribution Vz/F of apixaban [1, 8]: 73.73%
decrease in clearance CLz/F of apixaban [1, 8]: 72.53%
effect on pharmacokinetic parameters of apixaban ([1]; apixaban and palbociclib given 12 hours apart, rats): no significant pharmacokinetic changes; also recorded: not affected
AUC(0-t) ([1]; male, Sprague-Dawley, rat, plasma, po, 0.5 mg/kg, AUC0-t, SD rats, apixaban 0.5 mg/kg alone, geometric mean (GSD) (geometric CV%)): 579 ng·h/mL
AUC(0-inf) ([1]; male, Sprague-Dawley, rat, plasma, po, 0.5 mg/kg, AUC0-∞, SD rats, apixaban 0.5 mg/kg alone, geometric mean (GSD) (geometric CV%)): 583 ng·h/mL
Cmax ([1]; male, Sprague-Dawley, rat, plasma, po, 0.5 mg/kg, Cmax, SD rats, apixaban 0.5 mg/kg alone, geometric mean (GSD) (geometric CV%)): 243 ng/mL
MRT last ([1]; male, Sprague-Dawley, rat, plasma, po, 0.5 mg/kg, MRT0-t, SD rats, apixaban 0.5 mg/kg alone, geometric mean (GSD) (geometric CV%)): 1.83 h
MRT inf ([1]; male, Sprague-Dawley, rat, plasma, po, 0.5 mg/kg, MRT0-∞, SD rats, apixaban 0.5 mg/kg alone, geometric mean (GSD) (geometric CV%)): 1.92 h
Tmax ([1]; male, Sprague-Dawley, rat, plasma, po, 0.5 mg/kg, Tmax, SD rats, apixaban 0.5 mg/kg alone, geometric mean (GSD) (geometric CV%)): 0.53 h

CC(=O)c1c(C)c2cnc(Nc3ccc(N4CCNCC4)cn3)nc2n(C2CCCC2)c1=O [Palbociclib, palbociclib]
AUC(0-t) ([2]; male, Sprague-Dawley, rat, plasma, po, 11 mg/kg, AUC0-t, SD rats, palbociclib 11 mg/kg alone, geometric mean (GSD) (geometric CV%)): 4340 ng·h/mL
AUC(0-inf) ([2]; male, Sprague-Dawley, rat, plasma, po, 11 mg/kg, AUC0-∞, SD rats, palbociclib 11 mg/kg alone, geometric mean (GSD) (geometric CV%)): 4350 ng·h/mL
Cmax ([2]; male, Sprague-Dawley, rat, plasma, po, 11 mg/kg, Cmax, SD rats, palbociclib 11 mg/kg alone, geometric mean (GSD) (geometric CV%)): 469 ng/mL
MRT last ([2]; male, Sprague-Dawley, rat, plasma, po, 11 mg/kg, MRT0-t, SD rats, palbociclib 11 mg/kg alone, geometric mean (GSD) (geometric CV%)): 7.33 h
MRT inf ([2]; male, Sprague-Dawley, rat, plasma, po, 11 mg/kg, MRT0-∞, SD rats, palbociclib 11 mg/kg alone, geometric mean (GSD) (geometric CV%)): 7.39 h
Tmax ([2]; male, Sprague-Dawley, rat, plasma, po, 11 mg/kg, Tmax, SD rats, palbociclib 11 mg/kg alone, geometric mean (GSD) (geometric CV%)): 2.83 h
half-life ([2]; male, Sprague-Dawley, rat, plasma, po, 11 mg/kg, t1/2, SD rats, palbociclib 11 mg/kg alone, geometric mean (GSD) (geometric CV%)): 3.99 h
increase in AUC0-t of palbociclib [2, 9]: 24.75%
increase in AUC0-∞ of palbociclib [2, 9]: 24.83%
increase in Cmax of palbociclib [2, 9]: 49.30%
increase in AUC0-t of palbociclib [2, 10]: 32.94%
increase in AUC0-∞ of palbociclib [2, 10]: 33.13%
downregulation of P-gp mRNA expression ([3]; intestine): 20.17%
effect on P-gp mRNA expression ([3]; liver): no significant effect
effect on BCRP mRNA expression ([4]; intestine): no significant inhibition
decrease of BCRP mRNA expression ([4]; liver): 31.66%

O=C(NC[C@H]1CN(c2ccc(N3CCOCC3=O)cc2)C(=O)O1)c1ccc(Cl)s1 [Rivaroxaban, rivaroxaban]
CLz [5, 11]: 0.69(GSD 1.20) (65.6%) L/h/kg
Vz [5, 11]: 2.13(GSD 1.55) (118.4%) L/kg
MRT inf [5, 12]: 3.67 h
MRT last [5, 12]: 3.32 h
AUC(0-t) ([5]; male, Sprague-Dawley, rat, plasma, po, 2 mg/kg, AUC0-t, SD rats, rivaroxaban 2 mg/kg alone, geometric mean (GSD) (geometric CV%)): 691 ng·h/mL
AUC(0-inf) ([5]; male, Sprague-Dawley, rat, plasma, po, 2 mg/kg, AUC0-∞, SD rats, rivaroxaban 2 mg/kg alone, geometric mean (GSD) (geometric CV%)): 722 ng·h/mL
Tmax ([5]; male, Sprague-Dawley, rat, plasma, po, 2 mg/kg, Tmax, SD rats, rivaroxaban 2 mg/kg alone, geometric mean (GSD) (geometric CV%)): 1.02 h
decrease in MRT0-t of rivaroxaban [5, 13]: 27.82%
decrease in MRT0-∞ of rivaroxaban [5, 13]: 35.43%
decrease in apparent volume of distribution Vz/F of rivaroxaban [5, 13]: 77.46%
decrease in clearance CLz/F of rivaroxaban [5, 13]: 60.87%
differences for Tmax and t1/2 of rivaroxaban [5, 13]: no significant differences
increase in AUC0-t of rivaroxaban [5, 13]: 161.86%
increase in AUC0-∞ of rivaroxaban [5, 13]: 150.93%
increase in Cmax of rivaroxaban [5, 13]: 243.63%
effect on pharmacokinetic parameters of rivaroxaban ([5]; rivaroxaban and palbociclib given 12 hours apart, rats): no significant pharmacokinetic changes; also recorded: not affected
